Reference: US8410090B2, “Heterocyclylamide-substituted thiazoles, pyrroles and thiophenes” (AiCuris GmbH & Co. KG, priority 2005, dated 2013)

Assays:
[1] = Cytostatic effect on NHDF cells in the anti-HCMV cytopathogenicity test; assay type: cell-based; conditions: human, NHDF cells (human prepuce fibroblasts); maximum concentration with no visible cytostatic effects on NHDF cells vs untreated cell control; 6 days incubation
Procedure: Anti-HCMV (Anti-Human Cytomegalovirus) Cytopathogenicity Tests The test compounds are employed as 50 millimolar (mM) solutions in dimethyl sulphoxide (DMSO). Ganciclovir, foscarnet and cidofovir are used as reference compounds. After addition of in each case 2 μl of the 50, 5, 0.5 and 0.05 mM DMSO stock solutions to 98 μl portions of cell culture medium in row […] for duplicate determinations, 1:2 dilutions are carried out with 50 μl portions of medium up to row 11 of the 96-well plate. The wells in rows 1 and 12 each contain 50 μl of medium. Then 150 μl portions of a suspension of 1×10^4 cells (human prepuce fibroblasts [NHDF]) are pipetted into each of the wells (row 1=cell control) and, in rows 2-12, a mixture of HCMV-infected and uninfected NHDF cells (M.O.I.=0.001-0.002), i.e. 1-2 infected cells per 1000 uninfected cells. Row 12 (without substance) serves as virus control. The final test concentrations are 250-0.0005 μM. The plates are incubated at 37° C./5% CO2 for 6 days, i.e. until all the cells are infected in the virus controls (100% cytopathogenic effect [CPE]). The wells are then fixed and stained by adding a mixture of formalin and Giemsa's dye (30 minutes), washed with double-distilled water and dried in a drying oven at 50° C. The plates are then assessed visually using an overhead microscope (Plaque Multiplier from Technomara). The following data can be acquired from the test plates: CC50 (NHDF)=maximum substance concentration in μM at which no visible cytostatic effects on the cells are evident by comparison with the untreated cell control;

HCMV = experiment: Anti-HCMV cytopathogenicity test (CPE inhibition); assay type: cell-based, human cytomegalovirus; conditions: for EC50: Human betaherpesvirus 5, 144 h, concentration inhibiting CPE by 50% vs untreated virus control, HCMV-infected NHDF cells, M.O.I. 0.001-0.002, 6 days; for SI HCMV (selectivity index = CC50 (NHDF)/EC50 (HCMV)): ratio CC50 (NHDF)/EC50 (HCMV)
Procedure: Anti-HCMV (Anti-Human Cytomegalovirus) Cytopathogenicity Tests The test compounds are employed as 50 millimolar (mM) solutions in dimethyl sulphoxide (DMSO). Ganciclovir, foscarnet and cidofovir are used as reference compounds. After addition of in each case 2 μl of the 50, 5, 0.5 and 0.05 mM DMSO stock solutions to 98 μl portions of cell culture medium in row […] for duplicate determinations, 1:2 dilutions are carried out with 50 μl portions of medium up to row 11 of the 96-well plate. The wells in rows 1 and 12 each contain 50 μl of medium. Then 150 μl portions of a suspension of 1×10^4 cells (human prepuce fibroblasts [NHDF]) are pipetted into each of the wells (row 1=cell control) and, in rows 2-12, a mixture of HCMV-infected and uninfected NHDF cells (M.O.I.=0.001-0.002), i.e. 1-2 infected cells per 1000 uninfected cells. Row 12 (without substance) serves as virus control. The final test concentrations are 250-0.0005 μM. The plates are incubated at 37° C./5% CO2 for 6 days, i.e. until all the cells are infected in the virus controls (100% cytopathogenic effect [CPE]). The wells are then fixed and stained by adding a mixture of formalin and Giemsa's dye (30 minutes), washed with double-distilled water and dried in a drying oven at 50° C. The plates are then assessed visually using an overhead microscope (Plaque Multiplier from Technomara). The following data can be acquired from the test plates: EC50 (HCMV)=substance concentration in μM which inhibits the CPE (cytopathic effect) by 50% compared with the untreated virus control; SI (selectivity index)=CC50 (NHDF)/EC50 (HCMV).

Row | EC50 (HCMV) [µM] | Compound | CC50 at 6 days [1] [µM] | SI HCMV (selectivity index = CC50 (NHDF)/EC50 (HCMV)) (HCMV)
1 | 0.0059 | Cc1ccc(N2CCN(C(=O)c3cc(NC(=O)Nc4ccc(OC(F)(F)F)cc4)cs3)CC2)nc1 [Example 9, N-(5-{[4-(5-Methylpyridin-2-yl)piperazin-1-yl]carbonyl}-3-thienyl)-N′-[4-(trifluoromethoxy)-phenyl]urea] | 21 | 3559
2 | 0.0054 | Cc1ccc(N2CCN(C(=O)c3cnc(NC(=O)Nc4ccc(OC(F)(F)F)cc4)s3)CC2)nc1 [Example 23] | 11 | 2637
3 | 0.0016 | Cc1ccc(N2CCN(C(=O)c3nc(NC(=O)Nc4ccc(OC(F)(F)F)cc4)sc3C)CC2)nc1 [Example 14] | 11 | 7333
4 | 0.0007 | CCn1cc(NC(=O)Nc2ccc(OC(F)(F)F)cc2)cc1C(=O)N1CCN(c2ccc(C)cn2)CC1 [Example 4, N-(1-Ethyl-5-{[4-(5-methylpyridin-2-yl)piperazin-1-yl]carbonyl}-1H-pyrrol-3-yl)-N′-[4-(trifluoromethoxy)phenyl]urea] | 21 | 28767
